The subject of the experiment is Cell Necrosis. Briefly: Cell necrosis assay / cell viability assay (necrosis inhibitor activity). Format: cell-based. The following applies: necrosis inhibitor activity, read-out: EC50.
[1] abbreviates: EC data for 14-191 extrapolated.

Usually EC50 stands for the concentration at which the effect is half-maximal.

Where two headings read alike, the source gives them in different places.

With `CNc1nc(N2CCN(C(=O)N3N=CC[C@H]3c3cc(F)cc(F)c3)CC2)ncc1F` [Compound 303, (S)-(5-(3,5-difluorophenyl)-4,5-dihydro-1H-pyrazol-1-yl)(4-(5-fluoro-4-(methylamino)pyrimidin-2-yl)piperazin-1-yl)methanone], the 50% effective concentration (EC50) (compounds outside 14-191) was in the range of 1 to 1000 nM.
Consider `O=C(N1CC(Oc2ccccc2F)C1)N1N=CC[C@H]1c1cc(F)cc(F)c1` [Compound 144], for which the concentration giving a half-maximal response (EC50) under setting [1] was 1 to 1000 nM.
For the compound `CNc1cccc(C=C2CN(C(=O)N3N=CC[C@H]3c3cc(F)cc(F)c3)C2)c1` [Compound 317, (S)-(5-(3,5-difluorophenyl)-4,5-dihydro-1H-pyrazol-1-yl)(3-(3-(methylamino)benzylidene)azetidin-1-yl)methanone], the 50% effective concentration (EC50) (compounds outside 14-191) fell in the range of 1 to 1000 nM.
The same measure, in the same setting: in the case of `O=C(Nc1nc(N2CCN(C(=O)N3N=CC[C@H]3c3cc(F)cc(F)c3)CC2)ncc1F)C1CCOCC1` [Compound 293, (S)—N-(2-(4-(5-(3,5-difluorophenyl)-4,5-dihydro-1H-pyrazole-1-carbonyl)piperazin-1-yl)-5-fluoropyrimidin-4-yl)tetrahydro-2H-pyran-4-carboxamide] it was 1 to 1000 nM.
`C[C@@H]1CN(c2ncc(F)cn2)C[C@H](C)N1C(=O)N1N=CCC1c1cccc(F)c1` (stereo partly drawn) [Compound 29, (5-(3-fluorophenyl)-4,5-dihydro-1H-pyrazol-1-yl)((2R,6S)-4-(5-fluoropyrimidin-2-yl)-2,6-dimethylpiperazin-1-yl)methanone]: the concentration for a half-maximal effect (EC50) under setting [1] is 1 to 1000 nM.
The same measure, in the same setting: in the case of `CNC(=O)c1coc(OC2CN(C(=O)N3N=CCC3c3cc(F)cc(F)c3)C2)n1` (stereo not shown) [Compound 173] it was 1 to 1000 nM; in that of `O=C(N1CC(Oc2ccc(F)nc2)C1)N1N=CCC1c1cc(F)cc(F)c1` (stereo not shown) [Compound 141, (5-(3,5-difluorophenyl)-4,5-dihydro-1H-pyrazol-1-yl)(3-((6-fluoropyridin-3-yl)oxy)azetidin-1-yl)methanone], 1 to 1000 nM.
Still for that read-out and setting: the value for `O=C(N1CC(Oc2ccc3ccc(=O)[nH]c3c2)C1)N1N=CCC1c1cc(F)cc(F)c1` (stereo not shown) [Compound 189] was 1 to 1000 nM.
As to `O=C(Nc1nccc(O[C@@H]2CCN(C(=O)N3N=CC[C@H]3c3cc(F)cc(F)c3)C2)n1)C1CC1` [Compound 369, N-(4-(((R)-1-((S)-5-(3,5-difluorophenyl)-4,5-dihydro-1H-pyrazole-1-carbonyl)pyrrolidin-3-yl)oxy)pyrimidin-2-yl)cyclopropanecarboxamide], for the setting “compounds outside 14-191”, the EC50 was 1 to 1000 nM.
On the same count and under the same terms, the value for `O=C(N1CC(=Cc2ccc(F)cc2)C1)N1N=CCC1c1cc(F)cc(F)c1` (stereo not shown) [Compound 306, (5-(3,5-difluorophenyl)-4,5-dihydro-1H-pyrazol-1-yl)(3-(4-fluorobenzylidene)azetidin-1-yl)methanone] was 1 to 1000 nM.
For `O=C(N1CC[C@@H](Oc2ccc(F)cc2)C1)N1N=CCC1c1ccccc1` (stereo partly drawn) [Compound 33, ((R)-3-(4-fluorophenoxy)pyrrolidin-1-yl)(5-phenyl-4,5-dihydro-1H-pyrazol-1-yl)methanone], the EC50 under setting [1] was 1 to 1000 nM.
In the case of `O=C(N1CC(Oc2ccc3occc3c2)C1)N1N=CCC1c1cc(F)cc(F)c1` (stereo not shown) [Compound 216, (3-(benzofuran-5-yloxy)115zetidine-1-yl)(5-(3,5-difluorophenyl)-4,5-dihydro-1H-pyrazol-1-yl)methanone], the EC50 (compounds outside 14-191) lay within 1 to 1000 nM.
Consider `O=C(N1CC(Cc2ccc(F)cc2F)C1)N1N=CCC1c1cc(F)cc(F)c1` (stereo not shown) [Compound 54, (3-(2,4-difluorobenzyl)azetidin-1-yl)(5-(3,5-difluorophenyl)-4,5-dihydro-1H-pyrazol-1-yl)methanone], for which the 50% effective concentration (EC50) under setting [1] was 1 to 1000 nM.
Regarding `O=C(N1CC(Oc2cccc(F)c2)C1)N1N=CCC1c1ccccc1` (stereo not shown) [Compound 61, (3-(3-fluorophenoxy)azetidin-1-yl)(5-phenyl-4,5-dihydro-1H-pyrazol-1-yl)methanone], the concentration for a half-maximal effect (EC50) under setting [1] was 1 to 1000 nM.
Turning to `O=C(N1CC(Oc2ccc(-c3ncc[nH]3)cc2)C1)N1N=CC[C@H]1c1cc(F)cc(F)c1` [Compound 219, (S)-(3-(4-(1H-imidazol-2-yl)phenoxy)azetidin-1-yl)(5-(3,5-difluorophenyl)-4,5-dihydro-1H-pyrazol-1-yl)methanone], for the setting “compounds outside 14-191”, the half-maximal effective concentration (EC50) was in the range of 1 to 1000 nM.
Regarding `O=C(N1CC(Oc2cc(Br)ncn2)C1)N1N=CCC1c1ccccc1` (stereo not shown) [Compound 127, (3-((6-bromopyrimidin-4-yl)oxy)azetidin-1-yl)(5-phenyl-4,5-dihydro-1H-pyrazol-1-yl)methanone], the EC50 under setting [1] is 1 to 1000 nM.
On the same count and under the same terms, the value for `O=C(N1CCC(Cc2ccccc2)C1)N1N=CCC1c1ccccc1` (stereo not shown) [Compound 17, (3-benzylpyrrolidin-1-yl)(5-phenyl-4,5-dihydro-1H-pyrazol-1-yl)methanone] was 1 to 1000 nM.
For the compound `O=C(Nc1nc(N2CCN(C(=O)N3N=CC[C@H]3c3cc(F)cc(F)c3)CC2)ncc1F)C1CCCC1` [Compound 325, (S)—N-(2-(4-(5-(3,5-difluorophenyl)-4,5-dihydro-1H-pyrazole-1-carbonyl)piperazin-1-yl)-5-fluoropyrimidin-4-yl)cyclopentanecarboxamide], the concentration for a half-maximal effect (EC50) (compounds outside 14-191) fell in the range of 1 to 1000 nM.
With `O=C(N1CC(Oc2cnccn2)C1)N1N=CCC1c1ccccc1` (stereo not shown) [Compound 119, (5-phenyl-4,5-dihydro-1H-pyrazol-1-yl)(3-(pyrazin-2-yloxy)azetidin-1-yl)methanone], under setting [1], the EC50 was 1 to 1000 nM.
Still for that read-out and setting: in the case of `C[C@H]1CN(c2ncc(F)cn2)CCN1C(=O)N1OCC[C@H]1c1ccccc1` [Compound 109, ((S)-4-(5-fluoropyrimidin-2-yl)-2-methylpiperazin-1-yl)((S)-3-phenylisoxazolidin-2-yl)methanone] it was 1 to 1000 nM.
For `NC(=O)c1cc(OC2CN(C(=O)N3N=CC[C@H]3c3cc(F)cc(F)c3)C2)ccc1F` [Compound 220], the EC50 (compounds outside 14-191) is 1 to 1000 nM.
Regarding `O=C(N1CC(Oc2ccc(OCc3ccccc3)nc2)C1)N1N=CCC1c1cc(F)cc(F)c1` (stereo not shown) [Compound 211, (3-((6-(benzyloxy)pyridin-3-yl)oxy)azetidin-1-yl)(5-(3,5-difluorophenyl)-4,5-dihydro-1H-pyrazol-1-yl)methanone], the EC50 (compounds outside 14-191) was in the range of 1 to 1000 nM.
Still for that read-out and setting: in the case of `O=C(N1CC(=Cc2ccc(F)nc2)C1)N1N=CCC1c1cncc(F)c1` (stereo not shown) [Compound 307, (5(5-fluoropyridin-3-yl)-4,5-dihydro-H-pyrazol-1-yl)(3-((6-fluoropyridin-3-yl)methylene)azetidin-1-yl)methanone] it was 1 to 1000 nM.
For the compound `O=C(N1CC(Cc2ccc(F)cc2)C1)N1N=CCC1c1ccccc1` (stereo not shown) [Compound 42, (3-(4-fluorobenzyl)azetidin-1-yl)(5-phenyl-4,5-dihydro-1H-pyrazol-1-yl)methanone], the EC50 under setting [1] was 1 to 1000 nM.
On to `C#Cc1cc(OC2CN(C(=O)N3N=CCC3c3ccccc3)C2)ncn1` (stereo not shown) [Compound 125, (3-((6-ethynylpyrimidin-4-yl)oxy)azetidin-1-yl)(5-phenyl-4,5-dihydro-1H-pyrazol-1-yl)methanone], for which the half-maximal effective concentration (EC50) under setting [1] is 1000 to 10000 nM.
The same measure, in the same setting: the value for `Cc1csc(N2CCN(C(=O)N3N=CCC3c3ccccc3)CC2)n1` (stereo not shown) [Compound 105, (4-(4-methylthiazol-2-yl)piperazin-1-yl)(5-phenyl-4,5-dihydro-1H-pyrazol-1-yl)methanone] was 1000 to 10000 nM; that for `O=C(N1CC(Oc2ccc3ccc(=O)[nH]c3c2)C1)N1N=CCC1c1cc(F)cc(F)c1` (stereo not shown) [Compound 181] was 1 to 1000 nM; that for `CNC(=O)c1cc(OC2CN(C(=O)N3N=CCC3c3cc(F)cc(F)c3)C2)ccc1Cl` (stereo not shown) [Compound 161] was 1 to 1000 nM.
